Results as given in the supplement of paper PMC10307832.

Legend:
Experiment in all cases: relative viability (nuclei count vs DMSO), 5 days (fraction); higher = more cells survive
CUDC-101 + OSI-027 = compound: C#Cc1cccc(Nc2ncnc3cc(OC)c(OCCCCCCC(=O)NO)cc23)c1 [CUDC-101] + COc1cccc2cc(-c3nc([C@H]4CC[C@H](C(=O)O)CC4)n4ncnc(N)c34)[nH]c12 [OSI-027] (partner 0.5 µM)
Summary of the method: (§1)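 Relative viability was taken as the ratio of nuclei in treated wells to nuclei in vehicle wells. Lung cancer cell lines in 1536-well plates received compounds by pin tool one day after seeding, either one drug alone or a fixed anchor-drug dose plus five library-drug doses (not always all listed) in √10 steps. Nuclei were counted on 4× images after 5 days of treatment, and values are medians of duplicate plates.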

NVP-TAE684 + Vorinostat = compound: COc1cc(N2CCC(N3CCN(C)CC3)CC2)ccc1Nc1ncc(Cl)c(Nc2ccccc2S(=O)(=O)C(C)C)n1 [NVP-TAE684] + O=C(CCCCCCC(=O)Nc1ccccc1)NO [Vorinostat] (partner 1 µM)
Summary of the method: as §1

Vandetanib + Trametinib = compound: COc1cc2/c(=N/c3ccc(Br)cc3F)nc[nH]c2cc1OCC1CCN(C)CC1 [Vandetanib] + CC(=O)Nc1cccc(-n2c(=O)n(C3CC3)c(=O)c3c(Nc4ccc(I)cc4F)n(C)c(=O)c(C)c32)c1 [Trametinib] (partner 0.02 µM)
Summary of the method: as §1

Vandetanib + Luminespib = compound: COc1cc2/c(=N/c3ccc(Br)cc3F)nc[nH]c2cc1OCC1CCN(C)CC1 [Vandetanib] + CCNC(=O)c1noc(-c2cc(C(C)C)c(O)cc2O)c1-c1ccc(CN2CCOCC2)cc1 [Luminespib] (partner 0.01 µM)
Summary of the method: as §1

Cell Line	relative viability (CUDC-101 + OSI-027; first compound 0.01 µM)	relative viability (CUDC-101 + OSI-027; first compound 0.03162 µM)	relative viability (CUDC-101 + OSI-027; first compound 0.1 µM)	relative viability (CUDC-101 + OSI-027; first compound 0.3162 µM)	relative viability (CUDC-101 + OSI-027; first compound 1 µM)	relative viability (NVP-TAE684 + Vorinostat; first compound 0.2 µM)	relative viability (NVP-TAE684 + Vorinostat; first compound 0.6325 µM)	relative viability (NVP-TAE684 + Vorinostat; first compound 2 µM)	relative viability (Vandetanib + Trametinib; first compound 0.02 µM)	relative viability (Vandetanib + Trametinib; first compound 0.06325 µM)	relative viability (Vandetanib + Trametinib; first compound 0.2 µM)	relative viability (Vandetanib + Trametinib; first compound 0.6325 µM)	relative viability (Vandetanib + Trametinib; first compound 2 µM)	relative viability (Vandetanib + Luminespib; first compound 0.02 µM)	relative viability (Vandetanib + Luminespib; first compound 0.06325 µM)	relative viability (Vandetanib + Luminespib; first compound 0.2 µM)	relative viability (Vandetanib + Luminespib; first compound 0.6325 µM)	relative viability (Vandetanib + Luminespib; first compound 2 µM)
HOP-62	0.862	0.842	0.896	0.924	0.567	0.566	0.57	0.553	0.354	0.368	0.36	0.4	0.363	0.884	0.886	0.909	0.823	0.848
NCI-H2085	0.577	0.646	0.728	0.835	0.535	0.817	0.755	0.725	0.549	0.499	0.5	0.593	0.484	0.451	0.384	0.269	0.478	0.398
NCI-H2087	0.473	0.548	0.463	0.679	0.561	0.917	0.492	0.601	0.211	0.221	0.23	0.213	0.2	0.183	0.197	0.132	0.179	0.255
NCI-H1395	0.746	0.629	0.628	0.727	0.508	0.71	0.554	0.711	1.06	1.01	0.956	1.13	1.05	0.715	0.539	0.729	0.6	0.879
COR-L 105	0.717	0.73	0.399	0.61	0.204		0.78	0.509	0.42	0.405	0.427	0.383	0.416	0.643	0.694	0.275	0.854	0.604
CAL-12T	0.706	0.668	0.777	0.71	0.575	0.786	0.615	0.245	0.342	0.3	0.316	0.242	0.305	0.367	0.461	0.183	0.307	0.232
A-427	0.464	0.486	0.351	0.473	0.308	0.908	0.848	0.738	0.734	0.662	0.745	0.737	0.742	0.892	0.822	0.927	1.08	0.926
NCI-H1975	0.658	0.75	0.728	0.813	0.698	0.694	0.666	0.263	0.356	0.344	0.378	0.35	0.365	0.347	0.27	0.224	0.173	0.236
NCI-H1993	0.61	0.552	0.625	0.626	0.657	0.713	0.695	0.48	0.568	0.552	0.499	0.545	0.494	0.951	0.785	0.538	0.838	0.721
NCI-H2023	0.433	0.461	0.432	0.488	0.325	0.646	0.634	0.102	0.498	0.507		0.556	0.49	0.811	0.604	0.796	0.731	0.497
201T	0.801	0.703		0.752	0.687	1.02	1	0.831	0.715	0.68	0.751	0.696	0.676	1.03	1.05	1.01	0.99	0.974
LK-2	0.217	0.212	0.201	0.203	0.15	0.271	0.219	0.215	0.753	0.829	0.82	0.62	0.724	0.189	0.163	0.235	0.156	0.214
SW 1573	0.578	0.623	0.726	0.766	0.279	0.745	0.636	0.346	0.59	0.568		0.598	0.615	0.383	0.227	0.415	0.24	0.18
NCI-H647	0.68	0.668	0.783	0.596	0.383	0.792	0.6	0.174	0.458	0.474	0.469	0.451	0.436	0.334	0.337	0.0629	0.283	0.285
NCI-H727	0.633	0.601	0.7	0.578	0.369	1.09	1.25	0.869	0.417	0.379	0.366	0.364	0.329	0.591	0.349	0.247	0.252	0.316
SW 900	0.577	0.42	0.562	0.577	0.662	0.686	0.46	0.687	0.654	0.71		0.673	0.549	0.19	0.17	0.195	0.204	0.175
BEN	0.336	0.259	0.348	0.281	0.292	0.547	0.524	0.419	1.09	1.01	0.985	1	0.798	0.448	0.333	0.469	0.297	0.351
NCI-H650	0.58	0.569	0.622	0.587	0.474	0.428	0.298	0.406	0.995	0.927	0.947	0.929	0.981	0.843	0.667		0.992	0.766
NCI-H441	0.622	0.625	0.621	0.803	0.399	0.972	0.688	0.56	0.527	0.467	0.43	0.405	0.351	0.376	0.392	0.208	0.409	0.45
NCI-H522	0.638	0.64	0.67	0.703	0.549	0.78	0.855	0.764	0.87	0.818	0.856	0.791	0.771	1.3	1.17	1.11	1.18	0.96
NCI-H1793	0.291	0.255	0.255	0.25	0.218	1.14	0.575	0.878	0.479	0.362	0.47	0.418	0.408	0.189	0.14	0.159	0.209	0.166
NCI-H1915	0.627	0.597	0.591	0.551	0.404	0.579	0.547	0.459	0.29	0.291	0.29	0.329	0.292	0.744	0.808	0.766	0.766	0.733
LCLC-103H	0.45	0.42	0.485	0.435	0.433	0.725	0.759	0.653	0.665	0.606	0.638	0.677	0.695	0.922	0.979	0.906	0.916	0.912
SK-LU-1	0.356	0.332	0.431	0.402	0.325		0.822	0.487	0.453	0.344	0.562	0.567	0.458	0.202	0.204	0.156	0.196	0.217
NCI-H1666	0.85	0.867	0.837	0.857	0.739	0.99	0.964	0.877	0.844	0.817	0.879	0.764	0.815	1.05	0.981	0.405	0.949	0.823
COR-L23	0.786	0.724	0.792	0.695	0.39	0.413	0.397	0.101	0.619	0.517	0.695	0.71	0.641	0.629	0.653	0.747	0.7	0.685
NCI-H460	0.701	0.62	0.734	0.762	0.555		0.806	0.106	0.141	0.147	0.157	0.148	0.123	0.0345	0.0344	0.0312	0.0333	0.0336
